Values of other authors, collected in patent publication US8071785B2, “Synthesis and evaluation of 18F-labelled-alkyl-1-[(1R)-1-phenylethyl]-1H-imidazole-5-carboxylate as a tracer for the quantification of β-11-hydroxylase enzyme in the adrenal glands” (priority 2006, dated 2011).

How the values were obtained:
[1] = tested on: lesions of adrenocortical origin; settings: clinical findings
[2] = tested on: steroid 110-hydroxylation
[3] = human adrenocortical tissue slices

**Q.** Which “uptake in lesions of adrenocortical origin, including adenomas” value [1] does the source give for `CC(c1ccccc1)n1cncc1C(=O)O[11CH3]` (centres unmarked) [[O-methyl-^11C]metomidate] here?
**A.** The value was “high uptake”.

**Q.** And the “uptake in lesions of non-adrenocortical origin” value [1]?
**A.** The value was “very low uptake”.

**Q.** Which “conversion of 11-deoxycorticosterone (DOC) to corticosterone and aldosterone” value [2, 3] does the source give for `CCOC(=O)c1cncn1[C@H](C)c1ccccc1` [etomidate] here?
**A.** Its value is “block the conversion”.

**Q.** What about the “conversion of 11-deoxycortisol to cortisol” value [2, 3] of the same compound?
**A.** Its value is “block the conversion”.

**Q.** With `COC(=O)c1cncn1[C@H](C)c1ccccc1` [metomidate, Methyl 1-[(1R)-1-phenylethyl]-1H-imidazole-5-carboxylate] as the compound, how does the “inhibition of steroid 110-hydroxylation” value ([2]; relative to etomidate) read?
**A.** The value was “equally potent inhibitor”.
